In test [1] the test system is mouse macrophages (RAW 264.7). Kind of test: In vitro innate immunity: cytokine secretion (ELISA) of macrophages treated with indoor dust-derived vesicles. The class given is cell-based. Particulars: Dust-EV treated with PMB or heat, vs Dust-EV alone. As to the method: Indoor dust was solubilized in PBS to separate extracellular vesicles and soluble components. The induction of innate immune responses by the vesicles and the water-soluble components was examined in vitro by applying them to mouse macrophages and measuring cytokine levels in the culture media.
In detail, mouse macrophages (RAW264.7) were seeded at a density of 1×10^5 cells/well into 24 well plates and maintained for 24 hours. After the cells were washed with PBS, a fresh DMEM medium was added to the cells which were then incubated for 15 hours with dust-derived extracellular vesicles (Dust-EV, 0.1 μg/ml) and soluble components (Dust-soluble, 8 μg/ml), separately. The culture media were harvested and centrifuged at 4° C. and 800×g for 10 min. Cytokines in the supernatant were quantitatively analyzed by enzyme linked immunosorbent assay (ELISA).
In addition, cytokine levels were measured after the cells were treated with 100 ng/ml and 1 μg/ml of the extracellular vesicles in the same manner as described above.
It is well known that LPS, found in the outer membrane of Gram-negative bacteria, acts as an endotoxin to induce innate immune responses and that it has been detected in indoor dust.

Another test has as its system C57BL/6 mice. Kind of test: In vivo acquired immune response to repetitive intranasal Dust-EV with or without PMB. Set-up: species or system mouse. As to the method:
C57BL/6 mice (6 weeks old, female, four in each group) were intranasally administered twice a week for three weeks with 1 μg of indoor dust-derived extracellular vesicles in 30 μl of PBS. In addition, the vesicles were administered together with PMB so as to examine the presence and role of LPS therein. Twenty four hours after injection, clinical analysis was performed.
Moreover, the immunological mechanism associated with the onset of lung inflammation was evaluated. Immune cells were separated from local lymph nodes and analyzed for the expression levels of IFN-γ and IL-17.

Test [2] relates to mouse macrophages (RAW 264.7). In words: In vitro innate immune response: cytokine secretion (ELISA) of macrophages treated with HDM-EV. Particulars: house dust mite-derived vesicles with Polymyxin B. The format is cell-based. As to the method: In detail, mouse macrophages (RAW264.7) were seeded at a density of 1×10^5 cells/well into 24 well plates and grown for 24 hours. After the cells were washed with PBS, a fresh DMEM medium was added to the cells which were then incubated for 15 hours with 100 ng, 1 μg and 10 μg of house dust mite-derived extracellular vesicles (HDM-EV). The culture media were harvested and centrifuged at 4° C. and 800×g for 10 min. Cytokines in the supernatant were quantitatively analyzed by enzyme linked immunosorbent assay (ELISA).

Where [3] appears, read: vesicles in combination with PMB, ELISA.

Take Polymyxin B [PMB]: in test [1], the “vesicle-induced secretion of IL-6” value is “significantly reduced” and the “vesicle-induced secretion of TNF-α” value is “significantly decreased”. Further, the “count of inflammatory cells in BAL fluid” value with C57BL/6 mice (Dust-EV administered together with PMB (Dust-EV+PMB), in contrast to vesicles alone) was “low”. Also, the “count of T cells secreting IFN-γ and IL-17 in local lymph nodes” value in the test on C57BL/6 mice (Dust-EV in the presence of PMB) was “reduced the count of T cells including those secreting IFN-γ and IL-17 in local lymph nodes”. In addition, in the test with C57BL/6 mice (setting [3]), the “level of IgG1 specific for indoor dust-derived vesicles in sera” value is “reduced to almost the same as those of the PBS group” and the “level of IgG2a specific for indoor dust-derived vesicles in sera” value is listed as “reduced to almost the same as those of the PBS group”. Besides, in test [2], the “vesicle-induced secretion of inflammatory mediators” value is listed as “suppressed”.

(Values after patent US8691522B2, “Composition comprising extracellular membrane vesicles derived from indoor air, and use thereof” (priority 2009, dated 2014).)
